Source: patent US9801961B2, “2-phenylimidazo[1,2-a]pyrimidines as imaging agents” (Hoffmann-La Roche Inc., priority 2013, dated 2017)

Tested on: native tau aggregates
Assay: TAU radioligand in vitro displacement assay ([3H]T808 autoradiography on human AD brain sections)
Assay type: binding
Details: radioligand [3H]T808 10 nM, 50 mM Tris pH 7.4, room temperature, 30 min; for % displacement of [3H]T808 (10 nM) at 1 uM: compound 1 uM; for % displacement of [3H]T808 (10 nM) at 10 nM: compound 10 nM
Summary of the method: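 Human AD brain cryosections (10 μm) co-incubated with [3H]T808 (10 nM) and test compound at various concentrations in 50 mM Tris pH 7.4, 30 min at room temperature, then washed at 4° C. Autoradiography after 5-day plate exposure. % displacement from ROI specific binding, white-matter signal subtracted as non-specific; cold T808 internal control.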

## Oc1cccc(-c2cn3ccc(N4CCC(F)CC4)nc3n2)c1 [Example 13, 3-[7-(4-Fluoropiperidin-1-yl)imidazo[1,2-a]pyrimidin-2-yl]phenol]
  % displacement of [3H]T808 (10 nM) at 1 uM: 67%

## CNc1ccn2cc(-c3ccc(OCCF)cc3)nc2n1 [Example 123, 2-(4-(2-Fluoroethoxy)phenyl)-N-methylimidazo[1,2-a]pyrimidin-7-amine]
  % displacement of [3H]T808 (10 nM) at 10 nM: 43%

## FCCC1CCN(c2ccn3cc(-c4ccc5c(c4)OCCO5)nc3n2)CC1 [Example 58, 2-(2,3-Dihydro-1,4-benzodioxin-6-yl)-7-[4-(2-fluoroethyl)piperidin-1-yl]imidazo[1,2-a]pyrimidine]
  % displacement of [3H]T808 (10 nM) at 10 nM: 18%

## CNc1ccn2cc(-c3ccc(SC)cc3)nc2n1 [Example 141, N-Methyl-2-(4-(methylthio)phenyl)imidazo[1,2-a]pyrimidin-7-amine]
  % displacement of [3H]T808 (10 nM) at 10 nM: 34%

## COc1ccc(-c2cn3ccc(NCC(F)(F)F)nc3n2)cc1 [Example 78, 2-(4-Methoxyphenyl)-N-(2,2,2-trifluoroethyl)imidazo[1,2-a]pyrimidin-7-amine]
  % displacement of [3H]T808 (10 nM) at 10 nM: 8%

## CCN(CC)c1ccn2cc(-c3ccc(OC)cc3)nc2n1 [Example 67, N,N-Diethyl-2-(4-methoxyphenyl)imidazo[1,2-a]pyrimidin-7-amine]
  % displacement of [3H]T808 (10 nM) at 10 nM: 19%

## FC1CCN(c2ccn3cc(-c4ccc(Cl)cc4)nc3n2)CC1 [Example 4, 2-(4-Chlorophenyl)-7-(4-fluoropiperidin-1-yl)imidazo[1,2-a]pyrimidine]
  % displacement of [3H]T808 (10 nM) at 1 uM: 58%
